Data reported in patent US6194408A, “Triazineone compounds for treating diseases due to Sarcocystis, Neospora and Toxoplasma” (Bayer Corporation, priority 1998, dated 2001).
“And” between values parts separate entries of the source, which are not always exact repeats. Equal entries are not always repeated. One block for each compound: values may come before it.

Columns and labels:
Format in all cases: in vivo
[1] = Pharmacokinetics of a single oral dose of Toltrazuril in horses (blood levels); conditions: horses receiving single oral 10 mg/kg Toltrazuril
Description: A pharmacokinetic study was conducted in horses comparing blood levels of Toltrazuril, Ponazuril and Toltrazuril Sulfoxide at various times post a single dose of Toltrazuril. All horses received a single dose of 10 mg/kg, which was administered orally as a suspension. Blood samples were drawn at the time of treatment (0) and at 0.25, 0.5, 1, 2, 4, 6, 12, 24, 48 and 72 hours post treatment. […] This was an indication that Ponazuril, alone, would produce acceptable blood levels that are envisioned to pass the blood-brain barrier, a characteristic required to treat neurological diseases such as those caused by Sarcocystis neurona, Toxoplasma gondii, Neospora caninum and Neospora heugesi.

[2] = Cerebral spinal fluid drug levels / passage of blood-brain barrier after repeated doses of Toltrazuril in horses; conditions: for AVG Cerebral Spinal Fluid level (Table 5b) / AVG Cerebral Spinal Fluid level (Table 5a): CSF, average, Day 10
Description: (§1) This experiment was conducted in order to determine whether triazineones such as Toltrazuril can pass the blood-brain barrier. Normal horses were divided into three groups of three horses per group. Group 1 horses received Toltrazuril administered orally as a 5% suspension at a dose level of 2.5 mg/Kg. Group 2 horses received Toltrazuril administered orally as a 5% suspension at a dose level of 5.0 mg/Kg. Group 3 horses received Toltrazuril administered orally as a 5% suspension at a dose level of 7.5 mg/Kg. The dosing was repeated daily for 10 days. Blood samples were drawn at 48, 96 and 240 hours and the concentration of Toltrazuril, Toltrazuril sulfoxide and Ponazuril in the serum was measured. Ten days after the start of the treatment (Day 10), a sample of cerebral spinal fluid was removed from each horse and the concentrations of Toltrazuril, Toltrazuril Sulfoxide and Ponazuril were again measured in these samples. The concentrations of Toltrazuril, Toltrazuril Sulfoxide and Ponazuril in the serum and cerebral spinal fluid are reported in TABLES 5a and 5b.

[3] = Serum drug levels after repeated doses of Toltrazuril in horses; design: unit not given here; conditions: for Toltrazuril Level (Table 5b) / Toltrazuril Level (Table 5a): per horse; for AVG Toltrazuril Level (Table 5b) / AVG Toltrazuril Level (Table 5a): average
Description: as §1

- Levels in serum / bloodstream (in words) [1]: significant levels
SMILES: Cc1cc(-n2c(=O)[nH]c(=O)n(C)c2=O)ccc1Oc1ccc([S+]([O-])C(F)(F)F)cc1 (stereo not drawn) [Toltrazuril Sulfoxide]

- AVG Cerebral Spinal Fluid level (Table 5b) ([2]; 2.5 mg/Kg oral Toltrazuril daily for 10 days): 0.09
- AVG Cerebral Spinal Fluid level (Table 5a) ([2]; 2.5 mg/Kg oral daily for 10 days): 0.15
- AVG Cerebral Spinal Fluid level (Table 5b) ([2]; 5.0 mg/Kg oral Toltrazuril daily for 10 days): 0.16
- AVG Cerebral Spinal Fluid level (Table 5a) ([2]; 5.0 mg/Kg oral daily for 10 days): 0.19
- AVG Cerebral Spinal Fluid level (Table 5b) ([2]; 7.5 mg/Kg oral Toltrazuril daily for 10 days): 0.22
- AVG Cerebral Spinal Fluid level (Table 5a) ([2]; 7.5 mg/Kg oral daily for 10 days): 0.39
- Toltrazuril Level (Table 5b) ([3]; 2.5 mg/Kg oral Toltrazuril daily for 10 days, 240 Hrs, 2.5 mg/kg): 2.61 and 2.36 and 4.04
- Toltrazuril Level (Table 5a) ([3]; 2.5 mg/Kg oral daily for 10 days, 96 Hrs, 2.5 mg/kg): 9.85 and 9.09 and 13.1
- Toltrazuril Level (Table 5a) ([3]; 2.5 mg/Kg oral daily for 10 days, 240 Hrs, 2.5 mg/kg): 15.29 and 9.60 and 15.21
- Toltrazuril Level (Table 5b) ([3]; 5.0 mg/Kg oral Toltrazuril daily for 10 days, 48 Hrs, 5 mg/kg): 0.48 and 0.63
- Toltrazuril Level (Table 5b) ([3]; 5.0 mg/Kg oral Toltrazuril daily for 10 days, 96 Hrs, 5 mg/kg): 2.09 and 2.03 and 2.66
- Toltrazuril Level (Table 5a) ([3]; 5.0 mg/Kg oral daily for 10 days, 48 Hrs, 5 mg/kg): 7.28 and 9.18 and 9.26
- Toltrazuril Level (Table 5a) ([3]; 5.0 mg/Kg oral daily for 10 days, 96 Hrs, 5 mg/kg): 14.17 and 14.03 and 18.19
- Toltrazuril Level (Table 5a) ([3]; 5.0 mg/Kg oral daily for 10 days, 240 Hrs, 5 mg/kg): 24.92 and 16.54 and 17.59
- Toltrazuril Level (Table 5b) ([3]; 7.5 mg/Kg oral Toltrazuril daily for 10 days, 96 Hrs, 7.5 mg/kg): 2.69 and 2.89 and 3.09
- Toltrazuril Level (Table 5b) ([3]; 7.5 mg/Kg oral Toltrazuril daily for 10 days, 240 Hrs, 7.5 mg/kg): 6.31 and 6.37 and 7.06
- Toltrazuril Level (Table 5a) ([3]; 7.5 mg/Kg oral daily for 10 days, 48 Hrs, 7.5 mg/kg): 9.90 and 10.46
- Toltrazuril Level (Table 5a) ([3]; 7.5 mg/Kg oral daily for 10 days, 96 Hrs, 7.5 mg/kg): 27.74 and 19.55 and 18.47
- Toltrazuril Level (Table 5a) ([3]; 7.5 mg/Kg oral daily for 10 days, 240 Hrs, 7.5 mg/kg): 30.08 and 24.15 and 23.53
- AVG Toltrazuril Level (Table 5b) ([3]; 2.5 mg/Kg oral Toltrazuril daily for 10 days, 48 Hrs): 1.41
- AVG Toltrazuril Level (Table 5b) ([3]; 2.5 mg/Kg oral Toltrazuril daily for 10 days, 96 Hrs): 1.76
- AVG Toltrazuril Level (Table 5b) ([3]; 2.5 mg/Kg oral Toltrazuril daily for 10 days, 240 Hrs): 3.00
- AVG Toltrazuril Level (Table 5a) ([3]; 2.5 mg/Kg oral daily for 10 days, 48 Hrs): 6.70
- AVG Toltrazuril Level (Table 5a) ([3]; 2.5 mg/Kg oral daily for 10 days, 96 Hrs): 10.68
- AVG Toltrazuril Level (Table 5a) ([3]; 2.5 mg/Kg oral daily for 10 days, 240 Hrs): 13.37
- AVG Toltrazuril Level (Table 5b) ([3]; 5.0 mg/Kg oral Toltrazuril daily for 10 days, 48 Hrs): 0.53
- AVG Toltrazuril Level (Table 5b) ([3]; 5.0 mg/Kg oral Toltrazuril daily for 10 days, 96 Hrs): 2.26
- AVG Toltrazuril Level (Table 5b) ([3]; 5.0 mg/Kg oral Toltrazuril daily for 10 days, 240 Hrs): 5.02
- AVG Toltrazuril Level (Table 5a) ([3]; 5.0 mg/Kg oral daily for 10 days, 48 Hrs): 8.57
- AVG Toltrazuril Level (Table 5a) ([3]; 5.0 mg/Kg oral daily for 10 days, 96 Hrs): 15.46
- AVG Toltrazuril Level (Table 5a) ([3]; 5.0 mg/Kg oral daily for 10 days, 240 Hrs): 19.68
- AVG Toltrazuril Level (Table 5b) ([3]; 7.5 mg/Kg oral Toltrazuril daily for 10 days, 48 Hrs): 2.55
- AVG Toltrazuril Level (Table 5b) ([3]; 7.5 mg/Kg oral Toltrazuril daily for 10 days, 96 Hrs): 2.89
- AVG Toltrazuril Level (Table 5b) ([3]; 7.5 mg/Kg oral Toltrazuril daily for 10 days, 240 Hrs): 6.58
- AVG Toltrazuril Level (Table 5a) ([3]; 7.5 mg/Kg oral daily for 10 days, 48 Hrs): 10.18
- AVG Toltrazuril Level (Table 5a) ([3]; 7.5 mg/Kg oral daily for 10 days, 96 Hrs): 21.92
- AVG Toltrazuril Level (Table 5a) ([3]; 7.5 mg/Kg oral daily for 10 days, 240 Hrs): 25.95
SMILES: Cc1cc(-n2c(=O)[nH]c(=O)n(C)c2=O)ccc1Oc1ccc(SC(F)(F)F)cc1 [Toltrazuril]
- Crossing of the blood-brain barrier ([2]; horses, after oral Toltrazuril daily for 10 days): effectively cross the blood-brain barrier
